From the supplement of paper PMC13380429
± gives the standard deviation of the averaged measurements.

Legend:
Conditions in all cases: 72 h
U2OS [1] = test: cell viability relative to DMSO; higher = less toxic
Vero E6 [2] = test: as above
Calu-3 [3] = test: as above
Caco-2 [4] = test: as above
HepG2 [5] = test: as above
U2OS [6] = test: drug sensitivity score (DSS) for viability; higher = more toxic; extreme values may be limits of the assay
Vero E6 [7] = test: as above
Calu-3 [8] = test: as above
Caco-2 [9] = test: as above
HepG2 [10] = test: as above
U2OS [11] = test: relative viability EC50 (midpoint between 100% and the lowest measured viability); higher = less toxic
Vero E6 [12] = test: as above
Calu-3 [13] = test: as above
Caco-2 [14] = test: as above
HepG2 [15] = test: as above

SMILES	cell viability (U2OS [1]; 1 nM) [%]	cell viability (U2OS [1]; 10 nM) [%]	cell viability (U2OS [1]; 100 nM) [%]	cell viability (U2OS [1]; 1000 nM) [%]	cell viability (U2OS [1]; 10000 nM) [%]	cell viability (Vero E6 [2]; 1 nM) [%]	cell viability (Vero E6 [2]; 10 nM) [%]	cell viability (Vero E6 [2]; 100 nM) [%]	cell viability (Vero E6 [2]; 1000 nM) [%]	cell viability (Vero E6 [2]; 10000 nM) [%]	cell viability (Calu-3 [3]; 1 nM) [%]	cell viability (Calu-3 [3]; 10 nM) [%]	cell viability (Calu-3 [3]; 100 nM) [%]	cell viability (Calu-3 [3]; 1000 nM) [%]	cell viability (Calu-3 [3]; 10000 nM) [%]	cell viability (Caco-2 [4]; 1 nM) [%]	cell viability (Caco-2 [4]; 10 nM) [%]	cell viability (Caco-2 [4]; 100 nM) [%]	cell viability (Caco-2 [4]; 1000 nM) [%]	cell viability (Caco-2 [4]; 10000 nM) [%]	cell viability (HepG2 [5]; 1 nM) [%]	cell viability (HepG2 [5]; 10 nM) [%]	cell viability (HepG2 [5]; 100 nM) [%]	cell viability (HepG2 [5]; 1000 nM) [%]	cell viability (HepG2 [5]; 10000 nM) [%]	drug sensitivity score (U2OS [6])	drug sensitivity score (Vero E6 [7])	drug sensitivity score (Calu-3 [8])	drug sensitivity score (Caco-2 [9])	drug sensitivity score (HepG2 [10])	relative viability EC50 (U2OS [11]) [µM]	relative viability EC50 (Vero E6 [12]) [µM]	relative viability EC50 (Calu-3 [13]) [µM]	relative viability EC50 (Caco-2 [14]) [µM]	relative viability EC50 (HepG2 [15]) [µM]
c1ccc(COCCCc2c[nH]cn2)cc1 [proxyfan]	99.6	97.8	102	97.5	101	96.9	95.8	95.9	99	93.3	101	101	98.4	103	105	96.4	92.9	93.5	91.6	95.6	97.9	108	97.7	103	107	0	0	0	0	0	> 10	> 10	> 10	> 10	> 10
NC[C@H]1O[C@H](O[C@H]2[C@H](O[C@@H]3O[C@H](CO)[C@@H](O)[C@H]3O)[C@@H](O)[C@H](N)C[C@@H]2N)[C@H](N)[C@@H](O)[C@@H]1O [ribostamycin-sulfate]	96.8 ± 1.1	98.8 ± 2.2	96.3 ± 2.3	101 ± 4.4	98.5 ± 1.5	103 ± 8.4	94 ± 5.7	100 ± 4.7	97.2 ± 2.3	102 ± 2.2	93.8 ± 8.4	97.7 ± 13	90.5 ± 5	104 ± 9.5	89.6 ± 0.99	94.5 ± 5	97.1 ± 2.4	87.5 ± 12	93 ± 2	88.5 ± 9.1	99.2 ± 0.85	106.8 ± 0.21	97 ± 5.2	102 ± 4.5	93.6 ± 8.2	0	0	0	0.9 ± 1.3	0.05 ± 0.071	> 10	> 10	> 10	> 10	> 10
COc1ccc(NS(=O)(=O)c2ccc(/N=N/c3ccc(O)c(C(=O)O)c3)cc2)nn1 [salazodine]	101	98	98.6	96.2	102	105	108	95.7	101	101	98	108	102	116	111	111	89.4	97.4	95.4	93.7	99.6	97.7	92.5	95.1	96.9	0	0	0	0	0	> 10	> 10	> 10	> 10	> 10
